These results are taken from patent US9676782B2, “Substituted pyrazolo[1,5-a]pyrazines as negative allosteric modulators of metabotropic glutamate receptor 3” (Vanderbilt University, priority 2014, dated 2017).

Like-named read-outs stand apart in the source and are kept apart here. Some results are limits rather than exact numbers.

The target in one assay is rat mGlu5 (Rattus norvegicus (Rat), UniProt P31424). In words: mGlu5 Ca2+ flux assay. The settings on record: for Fold selectivity (mGlu3 vs. mGlu5): ratio of rat mGlu5 EC50 or IC50 to rat mGlu3 IC50; for Emax at 30 µM: PAM, amplitude of response at 30 μM test compound as % of maximal response to glutamate, read-out: rat mGlu5 Glu max (%). It is filed as cell-based. Here is the method: (§1) The cells were grown overnight at 37° C. in the presence of 5% CO2. […] Dye was removed, 20 μL of assay buffer was added, and the plate was incubated for 5 minutes at room temperature. Ca^2+ flux was measured using the Functional Drug Screening System (FDSS7000, Hamamatsu, Japan). […] All test compounds were dissolved and diluted to a concentration of 10 mM in 100% DMSO. […] Calcium fluorescence measures were recorded as fold over basal fluorescence; raw data was then normalized to the maximal response to glutamate. […] The raw data file containing all time points was used as the data source in the analysis template. This was saved by the FDSS as a tab-delimited text file. Data were normalized using a static ratio function (F/F0) for each measurement of the total 360 values per well divided by each well's initial value. […] This is sufficient time to capture the peak amplitude of the cellular calcium response. […] EC50 values for test compounds were generated by fitting the normalized values versus the log of the test compound concentration (in mol/L) using a 4 parameter logistic equation where none of the parameters were fixed. Each of the three values collected at each concentration of test compound were weighted evenly.
Chain of rat mGlu5 (P31424 21-1203): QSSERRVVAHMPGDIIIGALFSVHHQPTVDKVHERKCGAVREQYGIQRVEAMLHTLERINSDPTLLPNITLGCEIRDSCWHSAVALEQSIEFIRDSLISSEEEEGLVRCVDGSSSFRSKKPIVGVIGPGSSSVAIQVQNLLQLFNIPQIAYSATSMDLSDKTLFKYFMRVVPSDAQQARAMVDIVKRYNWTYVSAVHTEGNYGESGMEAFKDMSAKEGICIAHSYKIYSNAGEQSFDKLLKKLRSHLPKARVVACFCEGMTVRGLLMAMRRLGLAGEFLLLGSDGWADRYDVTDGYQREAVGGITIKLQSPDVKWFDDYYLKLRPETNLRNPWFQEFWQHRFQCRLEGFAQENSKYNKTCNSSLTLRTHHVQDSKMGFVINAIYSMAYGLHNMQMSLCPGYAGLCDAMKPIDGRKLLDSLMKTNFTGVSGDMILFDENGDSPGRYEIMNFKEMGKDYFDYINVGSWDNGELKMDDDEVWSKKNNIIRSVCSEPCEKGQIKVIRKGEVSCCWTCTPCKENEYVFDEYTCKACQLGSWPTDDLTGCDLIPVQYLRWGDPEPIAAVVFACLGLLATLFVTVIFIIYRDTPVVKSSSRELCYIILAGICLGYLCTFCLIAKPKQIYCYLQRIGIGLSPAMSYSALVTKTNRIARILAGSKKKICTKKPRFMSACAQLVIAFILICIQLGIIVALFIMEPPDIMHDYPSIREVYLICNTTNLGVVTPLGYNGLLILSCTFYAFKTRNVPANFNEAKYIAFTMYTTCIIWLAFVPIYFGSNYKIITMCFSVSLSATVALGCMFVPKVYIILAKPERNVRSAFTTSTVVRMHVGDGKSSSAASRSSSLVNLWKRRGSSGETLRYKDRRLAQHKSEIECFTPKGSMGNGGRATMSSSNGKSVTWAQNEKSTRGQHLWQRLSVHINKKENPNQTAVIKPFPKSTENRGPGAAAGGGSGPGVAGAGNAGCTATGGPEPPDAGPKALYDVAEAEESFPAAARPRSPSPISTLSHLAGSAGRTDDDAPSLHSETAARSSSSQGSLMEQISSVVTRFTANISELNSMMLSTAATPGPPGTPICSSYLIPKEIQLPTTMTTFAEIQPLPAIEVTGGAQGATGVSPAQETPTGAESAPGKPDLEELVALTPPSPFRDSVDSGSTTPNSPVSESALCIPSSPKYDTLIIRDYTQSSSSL

The target of the next assay is rat mGlu3 (Rattus norvegicus (Rat), UniProt P31422). Put plainly: mGlu3 Ca2+ flux assay. Format: cell-based. The note with it: for remaining activity at 30 µM: amplitude of response at 30 μM test compound as % of maximal response to glutamate, read-out: rat mGlu3 Glu max (%); for mGlu3 Glu max: response at 30 μM compound as percentage of maximal glutamate response. Here is the method: as §1, with “for 10” for “for 5”
Chain of rat mGlu3 (P31422 23-879): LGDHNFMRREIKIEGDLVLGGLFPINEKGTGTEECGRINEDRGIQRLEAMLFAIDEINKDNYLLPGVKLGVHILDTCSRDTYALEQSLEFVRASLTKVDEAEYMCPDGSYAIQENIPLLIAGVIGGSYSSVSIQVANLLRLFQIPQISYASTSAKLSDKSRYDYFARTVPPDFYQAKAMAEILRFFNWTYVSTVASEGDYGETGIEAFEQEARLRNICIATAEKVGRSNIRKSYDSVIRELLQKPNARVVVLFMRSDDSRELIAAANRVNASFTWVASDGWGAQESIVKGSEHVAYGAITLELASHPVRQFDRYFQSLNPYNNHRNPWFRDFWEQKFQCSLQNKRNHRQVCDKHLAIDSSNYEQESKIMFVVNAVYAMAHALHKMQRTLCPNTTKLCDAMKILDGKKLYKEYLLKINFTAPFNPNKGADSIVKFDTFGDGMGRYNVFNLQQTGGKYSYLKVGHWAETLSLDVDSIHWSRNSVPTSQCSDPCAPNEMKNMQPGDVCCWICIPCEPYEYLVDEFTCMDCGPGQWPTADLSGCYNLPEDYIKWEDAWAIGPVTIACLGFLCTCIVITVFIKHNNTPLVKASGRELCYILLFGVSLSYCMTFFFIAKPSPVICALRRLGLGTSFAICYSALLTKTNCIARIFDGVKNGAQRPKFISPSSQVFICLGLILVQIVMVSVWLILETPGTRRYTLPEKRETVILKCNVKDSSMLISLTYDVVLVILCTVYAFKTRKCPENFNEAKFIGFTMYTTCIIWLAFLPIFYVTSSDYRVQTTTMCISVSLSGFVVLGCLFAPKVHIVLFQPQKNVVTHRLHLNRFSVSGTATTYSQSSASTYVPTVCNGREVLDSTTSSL

The mark [1] stands for this setting: read-out: rat mGlu5 EC50 or IC50.
The mark [2] stands for this setting: NAM potency, decrease of glutamate EC80 response, >30,000 = no measurable activity, >10,000 = no plateau, read-out: rat mGlu3 IC50.

Consider `CC(Nc1ccc(Cl)cc1)c1cc2n(n1)CCN(c1ccc(F)cc1)C2=O` (stereo not drawn) [Compound 172, 2-(1-((4-chlorophenyl)amino)ethyl)-5-(4-fluorophenyl)-6,7-dihydropyrazolo[1,5-a]pyrazin-4(5H)-one], for which the “Fold selectivity (mGlu3 vs. mGlu5)” value on rat mGlu5 was >19. Further, the EC50 at rat mGlu5 (setting [1]) is > 30 µM. Further, on rat mGlu3 (setting [2]), the IC50 stood at 1550 nM. At rat mGlu3, the remaining activity at 30 µM is 1.29%.
`CCCN(Cc1cc2n(n1)CCN(c1ccc(F)c(F)c1)C2=O)c1ccc(OC)cc1` [Compound 167, 5-(3,4-Difluorophenyl)-2-(((4-methoxyphenyl)(propyl)amino)methyl)-6,7-dihydropyrazolo[1,5-a]pyrazin-4(5H)-one]: the “Fold selectivity (mGlu3 vs. mGlu5)” value at rat mGlu5 was found to be 8.06. The EC50 at rat mGlu5 (setting [1]) was > 30 µM. In addition, at rat mGlu3, the remaining activity at 30 µM is 1.32%. At rat mGlu3 (read-out: rat mGlu3 IC50), the IC50 was determined as 3720 nM.
As to `O=C1c2cc(CNc3ncccc3C(F)(F)F)nn2CCN1c1ccc(F)cc1` [Compound 162, 5-(4-fluorophenyl)-2-(((3-(trifluoromethyl)pyridin-2-yl)amino)methyl)-6,7-dihydropyrazolo[1,5-a]pyrazin-4(5H)-one], on rat mGlu5, the “Fold selectivity (mGlu3 vs. mGlu5)” value is >7.8. Also, the EC50 on rat mGlu5 (setting [1]) was > 30 µM. In addition, the IC50 on rat mGlu3 (setting [2]) amounted to 3840 nM. Besides, the remaining activity at 30 µM on rat mGlu3 was determined as 0.79%.
The matching figures for `O=C1c2cc(CNc3ccc(OC(F)F)cc3F)nn2CCN1c1ccccn1` [Compound 151, 2-(((4-(difluoromethoxy)-2-fluorophenyl)amino)methyl)-5-(pyridin-2-yl)-6,7-dihydropyrazolo[1,5-a]pyrazin-4(5H)-one]: >31, > 30 µM, 943 nM and 1.14%.
For the molecule `COc1ccc(N(C)Cc2cc3n(n2)CCN(c2ccc(F)c(Cl)c2)C3=O)cc1` [Compound 133, 5-(3-chloro-4-fluorophenyl)-2-(((4-methoxyphenyl)(methyl)amino)methyl)-6,7-dihydropyrazolo[1,5-a]pyrazin-4(5H)-one], the “Fold selectivity (mGlu3 vs. mGlu5)” value at rat mGlu5 is >24. In addition, the EC50 on rat mGlu5 (setting [1]) is > 30 µM. Moreover, the IC50 on rat mGlu3 (setting [2]) was 1210 nM. On rat mGlu3, the remaining activity at 30 µM is 2.13%.
For `O=C1c2cc(CNc3cc(F)cc(F)c3)nn2CCN1c1ccc(F)cc1` [Compound 30, 2-(((3,5-difluorophenyl)amino)methyl)-5-(4-fluorophenyl)-6,7-dihydropyrazolo[1,5-a]pyrazin-4(5H)-one], at rat mGlu5, the Emax at 30 µM turned out to be 102% and the “Fold selectivity (mGlu3 vs. mGlu5)” value is given as 8.73. Further, the EC50 on rat mGlu5 (setting [1]) was determined as 6.44 µM. For the same molecule, the IC50 at rat mGlu3 (setting [2]) worked out at 738 nM. Also, the remaining activity at 30 µM at rat mGlu3 came out at 2.71%.
In the case of `COc1cccc(N(C)Cc2cc3n(n2)CCN(c2ccc(F)cc2)C3=O)c1` [Compound 88, 5-(4-fluorophenyl)-2-(((3-methoxyphenyl)(methyl)amino)methyl)-6,7-dihydropyrazolo[1,5-a]pyrazin-4(5H)-one], on rat mGlu5, the “Fold selectivity (mGlu3 vs. mGlu5)” value is >29. The EC50 at rat mGlu5 (setting [1]) was > 30 µM. For the same molecule, at rat mGlu3 (setting [2]), the IC50 is 1020 nM. Moreover, at rat mGlu3, the remaining activity at 30 µM came to 0.55%.
As for `O=C1c2cc(CNc3c(F)cccc3F)nn2CCN1c1ccc(F)cc1` [Compound 32, 2-(((2,6-difluorophenyl)amino)methyl)-5-(4-fluorophenyl)-6,7-dihydropyrazolo[1,5-a]pyrazin-4(5H)-one], at rat mGlu5, the Emax at 30 µM was 84.1% and the “Fold selectivity (mGlu3 vs. mGlu5)” value turned out to be 8.41. Besides, the EC50 on rat mGlu5 (setting [1]) was determined as 8.83 µM. Further, on rat mGlu3 (setting [2]), the IC50 came to 1050 nM. Further, the remaining activity at 30 µM at rat mGlu3 amounted to 1.25%.
For the molecule `C[C@@H]1CN(c2ccc(F)cc2)C(=O)c2cc(CNc3cccc(F)c3)nn21` [Compound 46, (R)-5-(4-fluorophenyl)-2-(((3-fluorophenyl)amino)methyl)-7-methyl-6,7-dihydropyrazolo[1,5-a]pyrazin-4(5H)-one], at rat mGlu5, the Emax at 30 µM was determined as 24.6% and the “Fold selectivity (mGlu3 vs. mGlu5)” value is >8.2. The EC50 on rat mGlu5 (setting [1]) was > 10 µM. Moreover, the remaining activity at 30 µM at rat mGlu3 came to 0.58%. At rat mGlu3 (read-out: rat mGlu3 IC50), the IC50 came out at 1210 nM.
On to `N#Cc1ccc(NCc2cc3n(n2)CCN(c2ccc(F)cc2)C3=O)cc1` [Compound 18, 4-(((5-(4-fluorophenyl)-4-oxo-4,5,6,7-tetrahydropyrazolo[1,5-a]pyrazin-2-yl)methyl)amino)benzonitrile], for which, on rat mGlu5, the “Fold selectivity (mGlu3 vs. mGlu5)” value is listed as >6.2. In addition, the EC50 at rat mGlu5 (setting [1]) was > 30 µM. For the same molecule, at rat mGlu3 (setting [2]), the IC50 worked out at 4780 nM. For the same molecule, on rat mGlu3, the remaining activity at 30 µM was 1.71%.
As to `C[C@H]1CN(c2ccc(F)cc2)C(=O)c2cc(CNc3ccccc3F)nn21` [Compound 43, (S)-5-(4-fluorophenyl)-2-(((2-fluorophenyl)amino)methyl)-7-methyl-6,7-dihydropyrazolo[1,5-a]pyrazin-4(5H)-one], at rat mGlu5, the Emax at 30 µM was 90.6% and the “Fold selectivity (mGlu3 vs. mGlu5)” value worked out at 2.06. Also, the EC50 at rat mGlu5 (setting [1]) turned out to be 5.23 µM. The IC50 at rat mGlu3 (setting [2]) was 2540 nM. The remaining activity at 30 µM at rat mGlu3 worked out at 1.61%.
Turning to `COc1ccc(N(C)Cc2cc3n(n2)CCN(c2cccc(Cl)c2F)C3=O)cc1` [Compound 135, 5-(3-chloro-2-fluorophenyl)-2-(((4-methoxyphenyl)(methyl)amino)methyl)-6,7-dihydropyrazolo[1,5-a]pyrazin-4(5H)-one], the “Fold selectivity (mGlu3 vs. mGlu5)” value at rat mGlu5 was >24. Also, at rat mGlu5 (setting [1]), the EC50 was > 30 µM. For the same molecule, the IC50 on rat mGlu3 (setting [2]) came to 1210 nM. For the same molecule, the remaining activity at 30 µM at rat mGlu3 was found to be 7.26%.
`CN(Cc1cc2n(n1)CCN(c1ccc(F)cc1)C2=O)c1cccc(F)c1` [drawing 31 X = NMe]: the EC50 on rat mGlu5 (Table 2 compounds with X = NMe, read-out: mGlu5 EC50) is 7.76 µM. On rat mGlu5 (Table 2 compounds with X = NMe, response at 30 μM compound as percentage of maximal glutamate response), the “mGlu5 Glu max” value was 110%. For the same molecule, the IC50 on rat mGlu3 (Table 2 compounds with X = NMe, read-out: mGlu3 IC50) is 594 nM. The “mGlu3 Glu max” value on rat mGlu3 (Table 2 compounds with X = NMe) was determined as 2%.
For the molecule `C[C@H]1CN(c2ccc(F)cc2)C(=O)c2cc(CNc3cccc(Cl)c3)nn21` [Compound 49, (S)-2-(((3-chlorophenyl)amino)methyl)-5-(4-fluorophenyl)-7-methyl-6,7-dihydropyrazolo[1,5-a]pyrazin-4(5H)-one], on rat mGlu5, the Emax at 30 µM came to 76.5% and the “Fold selectivity (mGlu3 vs. mGlu5)” value amounted to 4.45. Moreover, at rat mGlu5 (setting [1]), the EC50 came to 5.92 µM. For the same molecule, at rat mGlu3, the remaining activity at 30 µM is -0.54%. The IC50 at rat mGlu3 (read-out: rat mGlu3 IC50) was 1330 nM.
As for `CN(Cc1cc2n(n1)CCN(c1ccc(F)cc1)C2=O)c1ccccc1` [Compound 82, 5-(4-fluorophenyl)-2-((methyl(phenyl)amino)methyl)-6,7-dihydropyrazolo[1,5-a]pyrazin-4(5H)-one], the “Fold selectivity (mGlu3 vs. mGlu5)” value on rat mGlu5 was >24. For the same molecule, the EC50 on rat mGlu5 (setting [1]) is > 30 µM. Besides, the IC50 at rat mGlu3 (setting [2]) amounted to 1220 nM. For the same molecule, the remaining activity at 30 µM on rat mGlu3 is 1.01%.
In the case of `CC(C)(C)c1ccc(NCc2cc3n(n2)CCN(c2ccc(F)cc2)C3=O)cc1` [Compound 24, 2-(((4-(tert-butyl)phenyl)amino)methyl)-5-(4-fluorophenyl)-6,7-dihydropyrazolo[1,5-a]pyrazin-4(5H)-one], the IC50 at rat mGlu3 (read-out: rat mGlu3 IC50) was > 30000 nM.
In the case of `O=C1c2cc(CNc3ccc(F)cc3)nn2CCN1c1ccc(F)cc1` [drawing 32 X = NH], at rat mGlu3 (Table 2 compounds with X = NH, read-out: mGlu3 IC50), the IC50 worked out at 1150 nM. The “mGlu3 Glu max” value on rat mGlu3 (Table 2 compounds with X = NH) was 2%.
As to `O=C1c2cc(CNc3ccc(Br)cc3)nn2CCN1c1ccc(F)cc1` [Compound 16, 2-(((4-bromophenyl)amino)methyl)-5-(4-fluorophenyl)-6,7-dihydropyrazolo[1,5-a]pyrazin-4(5H)-one], on rat mGlu3 (read-out: rat mGlu3 IC50), the IC50 is > 30000 nM.
